Key:
[1] = CellTiter-Glo cell viability assay in Vero cells; format: cell-based, African green monkey; details: African green monkey, 72 h exposure
HSV-1 [2] = test: Cytopathic effect; format: cell-based, Herpes simplex virus type 1 (strain H129); details: for IC50: 48 h; for Selective Index: SI = CC50/IC50, CPE reduction assay, Vero cells
Vero cells = test: CellTiter-Glo cell viability assay in Vero cells; format: cell-based, African green monkey; details: 72 h exposure
HSV-1 IE, E, and L genes = test: HSV-1 IE, E and L gene expression (qRT-PCR and Western blot) in Vero cells; format: cell-based, Herpes simplex virus type 1 (strain H129)
HSV-1 [3] = test: Plaque reduction assay, HSV-1-infected HepG2 cells; format: cell-based, Herpes simplex virus type 1 (strain H129); details: Human alphaherpesvirus 1, HSV-1 MOI 0.01, HepG2 cells, 48 h
HSV-1 [4] = test: Time-of-addition assay, HSV-1 in Vero cells, plaque assay readout; format: cell-based, Herpes simplex virus type 1 (strain H129)
HSV-1 [5] = test: Plaque reduction assay, HSV-1-infected Hela cells; format: cell-based, Herpes simplex virus type 1 (strain H129); details: Human alphaherpesvirus 1, HSV-1 MOI 0.01, Hela cells, 48 h
HSV-1 [6] = test: Virus entry assay (IFA, anti-ICP5); format: cell-based, Herpes simplex virus type 1 (strain H129)
HSV-1 DNA = test: Intracellular and virion-associated HSV-1 DNA levels by real-time PCR; format: cell-based, Herpes simplex virus type 1 (strain H129); details: Vero cells, MOI 0.01, 24 h, qPCR
HSV-1 [7] = test: BMS treatment during different time periods of the HSV-1 life cycle; format: cell-based, Herpes simplex virus type 1 (strain H129)
HSV-1 [8] = test: Virus attachment assay (IFA, anti-gD); format: cell-based, Herpes simplex virus type 1 (strain H129); details: BMS at 0.5, 5, and 50 µM, 4 °C, MOI 10
[9] = CellTiter-Glo cell viability assay in Hela cells; format: cell-based; details: human, 72 h exposure
cycle E-dependent CDK2 = details: read-out: in vitro IC50; cited from earlier work
HSV-2 = test: Anti-HSV-2 activity in Vero cells by plaque assay; format: cell-based, Herpes simplex virus type 2 (strain G); details: HSV-2, Vero cells
[10] = CellTiter-Glo cell viability assay in HepG2 cells; format: cell-based; details: human, 72 h exposure
HSV-1 [11] = test: Plaque reduction assay (viral titer in supernatant), HSV-1-infected Vero cells; format: cell-based, Herpes simplex virus type 1 (strain H129); details: for Viral titer: HSV-1 MOI 0.01, 48 h, supernatant
cyclin B-dependent CDK1 = details: read-out: in vitro IC50; cited from earlier work
HCMV = test system: HCMV; set-up: method as in earlier work; details: cited from earlier work
[12] = Human alphaherpesvirus 1, HSV-1 MOI 0.01, Vero cells, CPE reduction, ND = Not detectable, read-out: IC50

CCN1CCN(Cc2ccc(Nc3ncc(F)c(-c4cc(F)c5nc(C)n(C(C)C)c5c4)n3)nc2)CC1 [Abemaciclib]
CC50 at 72 h [1]: 29.1 µM

Nc1nc2c(ncn2COCCO)c(=O)[nH]1 [Acyclovir, acyclovir]
IC50 (HSV-1 [2]; [12]): 0.42 µM
Selective Index (HSV-1 [2]): >238.10
CC50 at 72 h [1]: > 100 µM

CC(=O)Nc1cc(Oc2ccc3c(C(=O)Nc4ccc(CN5CCN(C)CC5)c(C(F)(F)F)c4)cccc3c2)ncn1 [BGG463]
CC50 (Vero cells): 18.5 µM

CCCCOc1c(C(=O)c2c(F)cc(C)cc2F)c[nH]c2nncc1-2 [BMS-265246]
transcripts of the IE gene ICP27, the E gene ICP8, and the L gene gD (HSV-1 IE, E, and L genes; MOI 0.01, qRT-PCR at 4, 8, and 20 hpi): concentration-dependently suppressed
protein levels of ICP4, ICP8, ICP5, and gB (HSV-1 IE, E, and L genes; Western blot at 24 hpi): reduced by BMS concentration-dependently
IC50 (HSV-1 [3]): 1.03 µM
production of progeny virions (HSV-1 [4]; pretreatment of the cells): significantly reduced
viral titer reduction (HSV-1 [4]; treatment started at 4 or 10 hpi until harvesting): less than one logarithm
IC50 (HSV-1 [5]): 0.18 µM
entry of HSV-1 to Vero cells (HSV-1 [6]; BMS at 0.5, 5, and 50 µM, 37 °C 30 min, MOI 10): did not affect the entry
expression of ICP5 (IFA over 1-4 hpi) (HSV-1 [6]; Vero cells, MOI 10, 1, 2, 3, and 4 h at 37 °C): the expression of ICP5 was prevented
intracellular HSV-1 DNA levels (HSV-1 DNA; Hirt method): decreases concentration-dependently
virion-associated HSV-1 viral DNA levels (HSV-1 DNA; supernatant): reduced concentration-dependently
virus production (plaque assay) (HSV-1 [7]; 50 μM BMS at 5–10 and 10–15 hpi, MOI 0.1, 30 h of infection): significantly suppress virus production
transcription of ICP27, ICP8, and gD (HSV-1 [7]; 50 μM BMS during 0–5, 5–10, 10–15, or 15–20 hpi, MOI 1, Vero cells): dramatically suppresses
binding of HSV-1 to Vero cells (HSV-1 [8]): did not affect the binding
CC50 at 72 h [9]: 189 µM
IC50 (cycle E-dependent CDK2): 0.009 µM
IC50 (HSV-1 [2]; Human alphaherpesvirus 1, Vero): 0.08 µM
Selective Index (HSV-1 [2]): >6250
CC50 at 72 h [1]: > 500 µM
Selective Index (HSV-2; CC50/IC50): > 472
IC50 (HSV-2; Human alphaherpesvirus 2, plaque assay): 1.06 µM
CC50 at 72 h [10]: > 500 µM
Viral titer (HSV-1 [11]; BMS 0.02 μM): 5.90 log10PFU/mL
Viral titer (HSV-1 [11]; BMS 0.07 μM): 5.87 log10PFU/mL
Viral titer (HSV-1 [11]; BMS 0.21 μM): 5.85 log10PFU/mL
Viral titer (HSV-1 [11]; BMS 0.62 μM): 5.76 log10PFU/mL
Viral titer (HSV-1 [11]; BMS 1.85 μM): 5.01 log10PFU/mL
Viral titer (HSV-1 [11]; BMS 5.56 μM): 3.40 log10PFU/mL
Viral titer (HSV-1 [11]; BMS 16.67 μM): 2.60 log10PFU/mL
Viral titer (HSV-1 [11]; BMS 50 μM): 2.24 log10PFU/mL
IC50 (HSV-1 [11]; Human alphaherpesvirus 1, HSV-1 MOI 0.01, Vero cells, 48 h, plaque assay): 0.95 µM
IC50 (cyclin B-dependent CDK1): 0.006 µM

COC(=O)[C@]1(Cc2ccc(O)c(CC=C(C)C)c2)OC(=O)C(O)=C1c1ccc(O)cc1 [Butyrolactone I]
CC50 at 72 h [1]: 151 µM

CCn1cnc2c(Nc3cccc(Cl)c3)nc(N[C@@H]3CCCC[C@@H]3N)nc21 [CGP74514A]
reduction of HCMV replication compared with untreated controls (HCMV): ~ 300 fold

COc1ccc(CNc2nc(N(CCO)CCO)nc3c2ncn3C(C)C)cc1 [CVT-313]
CC50 (Vero cells): 6.38 µM

CCc1cnn2c(NCc3ccc[n+]([O-])c3)cc(N3CCCC[C@H]3CCO)nc12 [Dinaciclib]
CC50 at 72 h [1]: 1.13 µM

CN1CC[C@H](c2c(O)cc(O)c3c(=O)cc(-c4ccccc4Cl)oc23)[C@H](O)C1 [Flavopiridol]
CC50 at 72 h [1]: 0.16 µM

COc1ccccc1-c1cc(Nc2cccc(CS(N)(=O)=O)c2)ncn1 [LDC000067]
CC50 (Vero cells): 14.4 µM

Cc1n[nH]c2ncc(C(=O)N3CCC[C@H]3c3ccc(Cl)cc3)cc12 [MSC2530818]
IC50 (HSV-1 [2]; [12]): 25 µM
Selective Index (HSV-1 [2]): 5.54
CC50 at 72 h [1]: 138 µM

C=CS(=O)(=O)c1ccc(Nc2nc(OCC3CCCCC3)c3[nH]cnc3n2)cc1 [NU6300]
CC50 (Vero cells): 13.8 µM

Nc1cc(Nc2ccc(S(N)(=O)=O)cc2)ncn1 [PNU112455A]
CC50 (Vero cells): 156 µM

CC(C)[C@H](CO)Nc1nc(Nc2ccc(C(=O)O)c(Cl)c2)c2ncn(C(C)C)c2n1 [Purvalanol B]
CC50 at 72 h [1]: 73.5 µM

O=C1NC(=NCc2cccs2)S/C1=C\c1ccc2ncccc2c1 [Ro-3306]
CC50 (Vero cells): 14.1 µM

CC[C@H](CO)Nc1nc(NCc2ccccc2)c2ncn(C(C)C)c2n1 [Seliciclib]
CC50 at 72 h [1]: 18.5 µM

CN(C)C/C=C/C(=O)Nc1cccc(C(=O)Nc2cccc(Nc3ncc(Cl)c(-c4c[nH]c5ccccc45)n3)c2)c1 [THZ2]
CC50 (Vero cells): 0.42 µM

Source: article PMC10459710 (Viruses, 2023)
